Data reported in PubChem BioAssay AID248 (DTP/NCI, 2004).
Values joined by “and” are separate entries in the source; they are usually repeats but may differ in a detail not shown here. Identical values can stand only once. Toxic doses and inconclusive results are not listed. Cut-off read from the data, not from the text of the source: active = T/C of 150% or more; inactive = T/C below 125%.

Tested on: L1210 leukemia ip in BDF1 mice, survival T/C
Test: NCI In Vivo Anticancer Drug Screen. Data for tumor model L1210 Leukemia (intraperitoneal) in B6D2F1 (BDF1) mice
Settings: endpoint: mean survival time, higher = longer survival
Method in brief: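 Ratio derived from survival: compound-dosed mice over vehicle-dosed mice, all bearing a transplantable tumor.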

[1] = dose: 25.0 mg/kg/injection, schedule: Q04DX003 (ip), vehicle: saline with Tween-80
[2] = dose: 50.0 mg/kg/injection, schedule: Q04DX003 (ip), vehicle: saline with Tween-80
[3] = dose: 100.0 mg/kg/injection, schedule: Q04DX003 (ip), vehicle: saline with Tween-80
[4] = dose: 100.0 mg/kg/injection, schedule: Q01DX009 (ip), vehicle: saline with Tween-80
[5] = dose: 100.0 mg/kg/injection, schedule: Q01DX001 (ip), vehicle: saline
[6] = dose: 200.0 mg/kg/injection, schedule: Q01DX001 (ip), vehicle: saline
[7] = dose: 400.0 mg/kg/injection, schedule: Q01DX001 (ip), vehicle: saline
[8] = dose: 100.0 mg/kg/injection, schedule: Q01DX009 (ip), vehicle: Klucel (hydroxypropylcellulose) (HPC)
[9] = dose: 200.0 mg/kg/injection, schedule: Q01DX009 (ip), vehicle: Klucel (hydroxypropylcellulose) (HPC)
[10] = dose: 400.0 mg/kg/injection, schedule: Q01DX009 (ip), vehicle: Klucel (hydroxypropylcellulose) (HPC)
[11] = dose: 100.0 mg/kg/injection, schedule: Q01DX001 (ip), vehicle: saline with Tween-80
[12] = dose: 200.0 mg/kg/injection, schedule: Q01DX001 (ip), vehicle: saline with Tween-80
[13] = dose: 400.0 mg/kg/injection, schedule: Q01DX001 (ip), vehicle: saline with Tween-80
[14] = dose: 25.0 mg/kg/injection, schedule: Q01DX009 (ip), vehicle: saline with Tween-80
[15] = dose: 50.0 mg/kg/injection, schedule: Q01DX009 (ip), vehicle: saline with Tween-80
[16] = dose: 200.0 mg/kg/injection, schedule: Q04DX003 (ip), vehicle: saline with Tween-80

Measured: T/C

NC(CNC(=O)OCc1ccccc1)=NCC(=O)O
inactive: [1] 94 % of control | [2] 89 % of control | [3] 89 % of control and 92 % of control

CC(C#N)C(N)=O (centres undefined)
inactive: dose: 12.5 mg/kg/injection, schedule: Q04DX003 (ip), vehicle: saline 97 % of control | dose: 25.0 mg/kg/injection, schedule: Q04DX003 (ip), vehicle: saline 94 % of control | dose: 50.0 mg/kg/injection, schedule: Q04DX003 (ip), vehicle: saline 105 % of control

CN(N=O)C(=O)N(C)C(=O)N(C)N=O
inactive: dose: 6.25 mg/kg/injection, schedule: Q01DX Z (ip), vehicle: carboxymethylcellulose (CMC) 104 % of control | dose: 12.5 mg/kg/injection, schedule: Q01DX Z (ip), vehicle: carboxymethylcellulose (CMC) 112 % of control | dose: 25.0 mg/kg/injection, schedule: Q01DX Z (ip), vehicle: carboxymethylcellulose (CMC) 108 % of control | dose: 50.0 mg/kg/injection, schedule: Q01DX Z (ip), vehicle: carboxymethylcellulose (CMC) 92 % of control

[CH3][Sn]1([CH3])[c]2ccccc2Oc2cccc[c]21
inactive: dose: 100.0 mg/kg/injection, schedule: Q01DX001 (ip), vehicle: other 92 % of control | dose: 200.0 mg/kg/injection, schedule: Q01DX001 (ip), vehicle: other 97 % of control | dose: 400.0 mg/kg/injection, schedule: Q01DX001 (ip), vehicle: other 87 % of control

Clc1cccc(Nc2nc(Cl)nc(C(Cl)(Cl)Cl)c2Cl)c1
inactive: [4] 88 % of control | dose: 200.0 mg/kg/injection, schedule: Q01DX009 (ip), vehicle: saline with Tween-80 94 % of control | dose: 400.0 mg/kg/injection, schedule: Q01DX009 (ip), vehicle: saline with Tween-80 88 % of control

CN(C)C(=S)N(C(=S)N(C)C)c1ccccc1
inactive: [5] 95 % of control | [6] 103 % of control | [7] 108 % of control

O=C(O)c1c(Cl)cccc1[N+](=O)[O-]
inactive: [5] 100 % of control | [6] 96 % of control | [7] 102 % of control

COc1cc(/C=N/NC(=O)CC(C)O)ccc1O (centres undefined)
inactive: [5] 104 % of control | [6] 102 % of control | [7] 104 % of control

Clc1cc(Cl)c2c(c1)Cc1cc(Cl)cc(N=Cc3ccc4c(c3)OCO4)c1-2
inactive: [8] 97 % of control | dose: 100.0 mg/kg/injection, schedule: Q04DX003 (ip), vehicle: Klucel (hydroxypropylcellulose) (HPC) 97 % of control | [9] 99 % of control | dose: 200.0 mg/kg/injection, schedule: Q04DX003 (ip), vehicle: Klucel (hydroxypropylcellulose) (HPC) 97 % of control | dose: 400.0 mg/kg/injection, schedule: Q04DX003 (ip), vehicle: Klucel (hydroxypropylcellulose) (HPC) 104 % of control

c1cc(Cc2ccc3c(c2)OCO3)c[nH]1
inactive: dose: 50.0 mg/kg/injection, schedule: Q04DX002 (ip), vehicle: saline with Tween-80 103 % of control | dose: 100.0 mg/kg/injection, schedule: Q04DX002 (ip), vehicle: saline with Tween-80 110 % of control | dose: 200.0 mg/kg/injection, schedule: Q04DX002 (ip), vehicle: saline with Tween-80 100 % of control

CC(C)CCCc1c[nH]c(=O)[nH]c1=O
inactive: [8] 105 % of control | dose: 100.0 mg/kg/injection, schedule: Q04DX003 (ip), vehicle: other 103 % of control | [9] 97 % of control | dose: 200.0 mg/kg/injection, schedule: Q04DX003 (ip), vehicle: other 101 % of control | [10] 97 % of control | dose: 400.0 mg/kg/injection, schedule: Q04DX003 (ip), vehicle: other 117 % of control

C[C@]12C=CC(=O)C=C1CC[C@@H]1[C@@H]2CC[C@]2(C)OC(=O)CC[C@@H]12
inactive: dose: 125.0 mg/kg/injection, schedule: Q01DX Z (sc), vehicle: steriod suspending solution 103 % of control | dose: 250.0 mg/kg/injection, schedule: Q01DX Z (sc), vehicle: steriod suspending solution 102 % of control | dose: 500.0 mg/kg/injection, schedule: Q01DX Z (sc), vehicle: steriod suspending solution 101 % of control | dose: 1000.0 mg/kg/injection, schedule: Q01DX Z (sc), vehicle: steriod suspending solution 101 % of control

COC(=O)C(Cc1c[nH]c2ccccc12)[N+](C)(C)C (centres undefined)
inactive: dose: 35.0 mg/kg/injection, schedule: Q01DX Z (ip), vehicle: saline 95 % of control | dose: 50.0 mg/kg/injection, schedule: Q01DX Z (ip), vehicle: saline 97 % of control

C1CCC2C(C1)CCCC2C(C1CCCC2CCCCC21)C1CCCC2CCCCC21 (centres undefined)
inactive: [11] 90 % of control | [12] 90 % of control | [13] 90 % of control

O=[N+]([O-])c1ccc(C=C2C=c3ccccc3=C2)cc1
inactive: dose: 12.5 mg/kg/injection, schedule: Q04DX003 (ip), vehicle: Klucel (hydroxypropylcellulose) (HPC) 94 % of control | dose: 25.0 mg/kg/injection, schedule: Q04DX003 (ip), vehicle: Klucel (hydroxypropylcellulose) (HPC) 96 % of control | dose: 50.0 mg/kg/injection, schedule: Q04DX003 (ip), vehicle: Klucel (hydroxypropylcellulose) (HPC) 97 % of control

COc1cc(/C=N/NC(=O)c2ccccc2Cl)ccc1O
inactive: dose: 12.5 mg/kg/injection, schedule: Q01DX009 (ip), vehicle: saline with Tween-80 91 % of control | [14] 88 % of control | [15] 95 % of control and 97 % of control

CN(C)C(=S)Oc1ccccc1C1(C)OCCO1
inactive: [11] 97 % of control | [12] 98 % of control | [13] 96 % of control

CN(C)Cc1cc(O)c(CN(C)C)cc1O
inactive: [14] 110 % of control | [1] 88 % of control | [15] 103 % of control | [2] 93 % of control | [3] 96 % of control

Oc1ccc(-c2ccccc2)cc1O
inactive: [5] 105 % of control | [6] 109 % of control | [7] 109 % of control

CC(C)SCC(N)CO (centres undefined)
inactive: dose: 12.5 mg/kg/injection, schedule: Q01DX009 (ip), vehicle: water 96 % of control | dose: 25.0 mg/kg/injection, schedule: Q01DX009 (ip), vehicle: water 96 % of control and 117 % of control | dose: 50.0 mg/kg/injection, schedule: Q01DX009 (ip), vehicle: water 99 % of control and 120 % of control | dose: 100.0 mg/kg/injection, schedule: Q01DX009 (ip), vehicle: water 100 % of control and 104 % of control | dose: 200.0 mg/kg/injection, schedule: Q01DX009 (ip), vehicle: water 108 % of control

COc1ccc([N+](=O)[O-])cc1NS(=O)(=O)c1ccc(Cl)cc1
inactive: [8] 102 % of control | [9] 98 % of control | [10] 93 % of control

Cn1cc(NC(=O)c2cc(NC(=O)CN=C(N)N)cn2C)cc1C(=O)NCCC(=N)N
inactive: dose: 6.3 mg/kg/injection, schedule: Q01DX Z (ip), vehicle: saline 88 % of control | dose: 12.5 mg/kg/injection, schedule: Q01DX Z (ip), vehicle: saline 92 % of control

CCC1=CC2CC3(C(=O)OC)c4[nH]c5ccccc5c4CC[N+](Cc4ccccc4)(C2)C13 (centres undefined)
inactive: [5] 100 % of control

COC(=O)CCCCCCCCC(C)c1ccccc1 (centres undefined)
inactive: [8] 98 % of control | dose: 100.0 mg/kg/injection, schedule: Q04DX003 (ip), vehicle: saline 103 % of control | [9] 92 % of control | dose: 200.0 mg/kg/injection, schedule: Q04DX003 (ip), vehicle: saline 89 % of control | [10] 97 % of control | dose: 400.0 mg/kg/injection, schedule: Q04DX003 (ip), vehicle: saline 92 % of control

CN(C)N=C(Cc1ccccc1)Cc1ccccc1
inactive: [15] 97 % of control | [4] 103 % of control | [3] 103 % of control | [16] 106 % of control

CC(C)N(CCCO)C(C)C
inactive: dose: 50.0 mg/kg/injection, schedule: Q01DX009 (ip), vehicle: saline 95 % of control | dose: 100.0 mg/kg/injection, schedule: Q01DX009 (ip), vehicle: saline 93 % of control | [3] 95 % of control | dose: 200.0 mg/kg/injection, schedule: Q01DX009 (ip), vehicle: saline 95 % of control | [16] 97 % of control

C=Cc1cnc(N)nc1-c1ccccc1
inactive: [3] 90 % of control | [16] 105 % of control | dose: 400.0 mg/kg/injection, schedule: Q04DX003 (ip), vehicle: saline with Tween-80 97 % of control
